Here are results for one molecule from US6518221B1, “Plant growth regulator and method for using same” (Wilbur-Ellis Company, priority 2002, dated 2003).

Holding throughout (format): in vivo
Test [1] has as its system cotton. The experiment in a line: Field trials in Greece: plant growth regulating effects (plant height). Conditions: 20.0 gm/Ha. The text has this:
Field trials were established in the country of Greece to determine the plant growth regulating effects of several products, including the chemical formulation of the present invention. The particular formulation of the present invention used in these trials, was as follows: 1.0 parts CCC; 2.7 parts WSCP; 0.6 parts CC; 27 parts Calcium; and, 6.75 parts Zinc (parts per weight). All of the chemical applications were applied at the same time, and there were three replications at each trial site.

The test system of test [2] is Stoneville cotton variety. The experiment in a line: Field study in Mississippi on Stoneville cotton: fruit (boll) set. The following applies: 10 grams per acre, applied once on July 8th, with 5.0% calcium and 1.25% zinc. As for the experimental part: A field study was conducted in the State of Mississippi on a Stoneville cotton variety, in which the physiological characteristics of plants treated with the plant growth regulator of the present invention (a mixture of CCC, WSCP, and CC), were compared to the characteristics of untreated plants, or “checks”, and the characteristics of plants treated with PIX.
The formulation of the present invention used in Example 2 was as follows: the ratio of WSCP to CCC was reduced to 2.7:1, and the ratio of CC (Choline Chloride) to CCC was 0.6:1. Also added to the formulation was 5.0% calcium and 1.25% zinc.
The rate of PIX application was 10 grams per acre, applied once on July 8th of the study year. The rate and timing of this application was consistent with the manufacturer's label recommendation. The rate of application of the plant growth regulator of the present invention was 2.5 grams per acre, applied once on June 28th and again on July 18th. As with Example 1, the formulations of PIX used in Example 2, included 5.0% calcium and 1.25% zinc.
The physiological characteristics under study determine the effectiveness of the chemical products on fruit, or boll, set. The first fruiting position on a reproductive branch is the most important plant feature that affects expected plant yield. Consequently, the higher the percentage of fruit set at the first fruiting position the higher the fruit yield potential.

The test system of test [3] is MAXXA cotton. The experiment in a line: Study on MAXXA cotton: effects on plant growth and development. Conditions: 10 gm/A. The method, then: A study was conducted on MAXXA cotton to determine the effects of Mepiquat Chloride and the combination of (CCC) chlormequat chloride/WSCP on plant growth and development.
In this example, the amount of WSCP used in each chemical treatment was constant, and the amount of CCC varied from 2.5 to 5.0 grams/acre. The corresponding ratios of WSCP and CCC were as follows: at the 2.5 gram/acre rate the ratio of WSCP to CCC was 30:1; at the 5.0 gram/acre rate the ratio of WSCP to CCC was 15:1. It should also be noted that 5.0% calcium and 1.25% zinc were also added to each of the mixtures.

Regarding `C[N+]1(C)CCCCC1.[Cl-]` [Mepiquat Chloride, N,N-dimethylpiperidinium chloride], the “Plant Height” value in test [1] (Site 1) is 10.00 Cm. The “Plant Height” value in test [1] (Site 2) came to 27.33 Cm. The “Plant Height” value in test [1] (Site 3) stood at 7.78 Cm. In test [2], the “First Fruiting Branch” value is listed as 6, the “Percentage Of First Fruiting Positions (Nodes 6-13)” value was found to be 76.3% and the “Total Percentage Of Fruit Set (Nodes 6-13)” value is 65.0%. Besides, in test [3], the “Average Bottom 5 FPB (First Position Bolls As A Percentage)” value stood at 60.0 Percentage, the “Average Fruiting Branches” value stood at 15.7, the “Average Nodes” value was 21.7 and the “Average Plant Height” value is on record as 35.9″. In test [3], the “Average Top 5 FPB (First Position Bolls As A Percentage)” value is given as 43.0 Percentage and the “Average Vegetative Nodes” value was determined as 6.1.
